Data set [1] deals with RhoA-ROCK signaling pathway. Kind of data set: RhoA activity, ROCK activity and MLC phosphorylation in HUVECs. It counts as cell-based, human. Here is the method:
RhoA activities were determined using a RhoA activation assay kit (BK036, Cytoskeleton). […] Cells were lysed and the cell lysates were incubated with the rhotekin beads (50 μg/sample) for 1 h at 4° C., washed two times, and eluted with Laemmli sample buffer. Bound RhoA, which is an active form of RhoA, was analyzed by SDS-PAGE separation followed by immunoblotting with an anti-RhoA antibody (ARH03, Cyto skeleton). The amount of total RhoA was also analyzed by immunoblotting using the same antibody in order to normalize the relative activity of RhoA.
ROCK activities were determined using a ROCK activity assay kit (CSA001, Millipore). HUVECs were lysed and cell lysates were incubated for 1 hr at room temperature in 96-well plates pre-coated with recombinant MYPT1, which contain Thr696 residue that can be phosphorylated by active ROCK. The plates were washed and incubated with anti-phospho-MYPT1 (Thr696) antibody followed by incubation with HRP-conjugated secondary antibody and HRP substrate reagent. The relative amount of active ROCK was measured by a microplate reader at 450 nm (Bio-Rad).
At the indicated time, tumor tissues or cultured HUVECs were homogenized in ice-cold lysis buffer containing a protease inhibitor cocktail (Roche). […] Chemiluminescent signals were developed with HRP substrate (Millipore) and detected with a LAS-1000 mini (Fuji film).

For data set [2], the system named is LLC tumor. Kind of data set: LLC implantation tumor model, tumor growth. It counts as in vivo, mouse. The conditions noted are these: for decrease of LLC tumor growth: RhoJ-WT mice; for maintenance of tumor growth response to CA4P: CA4P 50 mg/kg. Here is the method:
(§1) LLC and B16F10 melanoma cells were obtained from American Type Culture Collection. To generate implantation tumor models, suspensions of tumor cells (1×10^6 cells in 100 μl) were SC injected into the dorsal flank of 8 to 10 weeks old mice. Tumor volumes were measured at given time points. Tumor volume was calculated according to the formula, 0.5×A×B^2, where A is the largest diameter of a tumor and B is its perpendicular diameter. Tumor growth rate is defined as increased tumor volume relative to 2 days before. Indicated days later, the mice were anesthetized and tissues were harvested for further analyses. Tamoxifen (4 mg/kg, 4 times every 2 days, Sigma-Aldrich) was IP injected into Cdh5(PAC)-Cre^ERT2;Rhor^fl/fl mice starting from the day before tumor implantation or after the tumor volume had exceeded 300 mm^3. Cisplatin (10 mg/kg, every 7 days, Sigma-Aldrich) is IP injected for cytotoxic chemotherapy when tumor volume exceeded 100 mm^3. VEGF-trap (25 mg/kg, indicated schedule) is SC injected as an AIA therapy. CA4P (50 mg/kg, every 2 days, Sigma-Aldrich) was IP injected as a VDA therapy. As a control, equal amounts of Fc or PBS was injected in the same manner. To knock down RhoJ in vivo, control or RhoJ siRNA (2 mg/kg, indicated schedule), which were encapsulated into aptEDB-LS complexes, were IV injected into tumor-bearing mice.

For data set [3], the system named is LLC tumor. In words: LLC tumor model, intratumoral necrosis and hemorrhage (H&E). It counts as in vivo, mouse. As to conditions: RhoJ-KO mice treated with cisplatin compared to RhoJ-WT mice treated with cisplatin; 2 weeks after treatment.
Description: To generate implantation tumor models, suspensions of tumor cells (1×10^6 cells in 100 μl) were SC injected into the dorsal flank of 8 to 10 weeks old mice. Tumor volumes were measured at given time points. Tumor volume was calculated according to the formula, 0.5×A×B^2, where A is the largest diameter of a tumor and B is its perpendicular diameter. Tumor growth rate is defined as increased tumor volume relative to 2 days before. Indicated days later, the mice were anesthetized and tissues were harvested for further analyses. […]
Density measurement of blood vessels, metastasis, hemorrhagic area, leakage area, and perfusion area were performed with ImageJ software (http://rsb.info.nih.gov/ij). For blood vessel density, CD31^+ area per random 0.42 mm^2 areas was measured in the peri- and intratumoral regions. To determine the amount of blood vessels that express RhoJ, GFP^+&CD31^+ area per CD31^+ area in five random 0.42 mm^2 areas were calculated. In addition, to find the percentage of CD31^+ endothelial cells within RhoJ-GFP expressing cells, the GFP^+&CD31^+ area per total GFP^+ area was also calculated. […] The area of cytokeratin^+ fluorescence was presented as % per total sectioned area of lymph node. […] The extent of hemorrhage was measured as a % of Ter-119^+ area per random 0.24 mm^2 areas. Vascular leakage was quantified as the dextran^+ area % per random 0.42 mm^2.
The subject of data set [4] is LLC tumor. In words: Intratumoral cisplatin-modified DNA area in LLC tumor. In kind it is in vivo, mouse. The conditions noted are these: RhoJ-KO mice compared to RhoJ-WT mice. Here is the method:
as §1, with “tumor-bearing mice. […]” for “tumor-bearing mice.”

Data set [5] concerns HUVECs. Kind of data set: In vitro Matrigel tube formation assay. As to conditions: siJ-ECs (RhoJ knockdown) with CA4P 20 nM, 12 hr; compared to single treatment. It counts as cell-based, human. On the procedure:
(§2) HUVECs were purchased from Lonza, cultured in endothelial growth medium (EGM-2, Lonza) and incubated in a humidified atmosphere with 5% CO2 at 37° C. The cells used were between passages 3 to 8. Transfections of siRNA duplexes into HUVECs were performed using Lipofectamine® RNAiMAX (Invitrogen) at a final concentration of 40 nM according to the manufacturer's protocol.
For matrigel tube formation assay, growth factor reduced Matrigel (BD bioscience) was thawed overnight at 4° C. The Matrigel was allowed to solidify on a 4-well culture dishes at 37° C. for 30 min. Cells were harvested and seeded at a density of 2×10^4 cells/well in growth media. Cells were then incubated at 37° C. for a further 12 hr. Tube formation was observed by taking pictures using a Leica DM IL microscope. The matrigel assays were quantified by counting the number of nodes and tubules from five different fields for each condition.

Data set [6] concerns HUVECs. In words: In vitro vascular permeability assay (FITC-dextran across EC monolayer). It counts as cell-based, human. The conditions noted are these: siJ-ECs treated with CA4P (20 nM) compared to siC-ECs treated with PBS. Here is the method:
as §2
For in vitro vascular permeability assay, HUVECs were cultured on collagen-coated 1.0 μm-size pore insert (Millipore). After starvation for 12 hr, the cells were treated with or without VEGF (50 ng/ml) or CA4P (20 nM) for 2 hr and was then incubated with 70 kDa FITC-Dextran for 20 min. Each solution in plate wells were read with a Victor X2 multilabel plate reader.

In data set [7] the test system is LLC tumor vessels. In words: LLC tumor model, CD31+ tumor vessel density. The conditions noted are these: for reduction of vascular density, intratumoral region / reduction of vascular density, peritumoral region: CA4P 50 mg/kg, 6 days after first treatment. In kind it is in vivo, mouse. Here is the method: as §1
For hematoxylin and eosin (H&E) staining, tumors and indicated organs were fixed overnight in 4% paraformaldehyde (PFA). After tissue processing using standard procedures, samples were embedded in paraffin and cut into 3-1 μm sections followed by H&E staining. For immunofluorescence studies, samples were fixed in 1% PFA, dehydrated in 20% sucrose solution overnight, and embedded in tissue freezing medium (Leica). Frozen blocks were cut into 50-1 μm sections. Samples were blocked with 5% goat (or donkey) serum in PBST (0.03% Trition X-100 in PBS) and then incubated for 3 hr at room temperature (RT) with the following primary antibodies: anti-GFP (rabbit polyclonal, Millipore), anti-CD31 (hamster, clone 2H8, Millipore), anti-RhoJ (mouse, clone 1E4, Novus), anti-RhoJ (mouse, clone 1D7, OriGene), FITC-conjugated anti-c′-SMA (mouse, clone 1A4, Sigma-Aldrich), anti-VE-cadherin (rat, clone 11D4.1, BD Phamingen), anti-VE-cadherin (rabbit, clone D87F2, Cell Signaling), anti-PDGFRβ (rat, eBioscience), anti-Ter119 (rat, clone TER-119, eBioscience), anti-caspase-3 (rabbit polyclonal, R&D systems), anti-LYVE-1 (rabbit polyclonal, Angiobio), anti-pan-cytokeratin (mouse, clone AE1/AE3, Abcam), anti-melanin-A (rabbit polyclonal, Abcam), anti-collagen type IV (rabbit polyclonal, Cosmo Bio), or anti-cisplatin modified DNA (rat monoclonal, Abcam). After several washes, the samples were incubated for 2 hr at RT with the following secondary antibodies: FITC-, Cy3-, or Cy5-conjugated anti-hamster IgG (Jackson ImmunoResearch), FITC- or Cy3-conjugated anti-rabbit IgG (Jackson ImmunoResearch), Cy3-conjugated anti-rat IgG (Jackson ImmunoResearch), or Cy3-conjugated anti-mouse IgG (Jackson ImmunoResearch). Goat Fab fragment anti-mouse IgG (Jackson ImmunoResearch) was used to block endogenous mouse IgG to use mouse antibody on mouse tissues. F-actin was stained with acti-stain 555 phalloidin (Cytoskeleton). Nuclei were stained with 4′,6-diamidino-2-phenylindole (DAPI, Invitrogen). Then the samples were mounted with fluorescent mounting medium (DAKO) and immunofluorescent images were acquired using a Zeiss LSM510 confocal microscope (Carl Zeiss). To detect the hypoxic areas in the tumors, Hypoxyprobe-1™ (60 mg/kg, solid pimonidazole hydrochloride, Natural Pharmacia International) was IV injected 90 min before perfusion-fixation. The tumors were then harvested, sectioned, and stained with FITC-conjugated anti-Hypoxyprobe antibody.
Density measurement of blood vessels, metastasis, hemorrhagic area, leakage area, and perfusion area were performed with ImageJ software (http://rsb.info.nih.gov/ij). […]

Data set [8] relates to LLC tumor. In words: LLC tumor model, cytokeratin+ metastasis to inguinal LNs. In kind it is in vivo, mouse. The conditions noted are these: CA4P 50 mg/kg. On the procedure:
as §1, with “tumor-bearing mice. […]” for “tumor-bearing mice.”

Where [9] appears, read: LLC implanted WT mice, en-siJ 2 mg/kg, VEGF-trap 25 mg/kg, 12 days after first treatment.
The mark [10] stands for this setting: RhoJ-KO mice, VEGF-trap 25 mg/kg, 9 days after first treatment.
[11] abbreviates: RhoJ-WT mice, VEGF-trap 25 mg/kg, 9 days after first treatment.

As to `C[C@@H](N)[C@H]1CC[C@H](C(=O)Nc2ccncc2)CC1` [Y-27632], the “RhoA activity, ROCK activity and MLC phosphorylation increased in siJ-ECs, after ROCK inhibitor” value in data set [1] (siJ-ECs treated with Y-27632 (up to 20 μM) for 1 hr) is listed as “almost completely diminished”.
Consider `N.N.[Cl][Pt][Cl]` [Cisplatin, cisplatin], for which the “delay of LLC tumor growth” value in data set [2] (RhoJ-KO mice, cisplatin 10 mg/kg IP once every week from tumor volume >100 mm^3) came out at 90%. For the same compound, in data set [2] (cisplatin 10 mg/kg IP once every week from tumor volume >100 mm^3), the “decrease of LLC tumor growth” value is 64%. The compound also returned an increased intratumoral necrosis in data set [3] of 80%. Moreover, the “increase in intratumoral accumulation of cisplatin” value in data set [4] is recorded as about 2.0 fold.
`COc1ccc(/C=C\c2cc(OC)c(OC)c(OC)c2)cc1OP(=O)(O)O` [CA4P, combretastatin-A4-phosphate]: in data set [5], the EC tube formation entry is listed as “almost complete disruption”. Besides, in data set [6], the “increase in permeability across the EC monolayer” value stood at 2.9 fold. Also, the “RhoA-ROCK signaling pathway (MLC phosphorylation)” value in data set [1] (RhoJ knockdown in combination with CA4P 20 nM, 30 min) is “further activated”. Also, the “additional inhibition in tumor growth” value in data set [2] (LLC, RhoJ-KO mice, CA4P 50 mg/kg IP every 2 days) is recorded as 79%. Besides, the “reduction in tumor growth” value in data set [2] (LLC, WT mice, CA4P 50 mg/kg IP every 2 days) came out at 18%. In addition, the “maintenance of tumor growth response to CA4P” value is given as “durable response” in data set [2] (RhoJ-KO mice) and “not maintained” in data set [2] (WT mice). Further, the “reduction of vascular density, intratumoral region” value in data set [7] (RhoJ-KO mice) came out at 60%; in data set [7] (RhoJ-WT mice) it was 31%. Moreover, the “reduction of vascular density, peritumoral region” value was 59% in data set [7] (RhoJ-KO mice) and 13% in data set [7] (RhoJ-WT mice). Further, the “reduction of metastasis (inguinal LNs)” value in data set [8] (RhoJ-KO mice) was 67%; in data set [8] (RhoJ-WT mice) it was “no reduction”.
Turning to “VEGF-trap: VEGF decoy receptor; recombinant protein from stable CHO cell lines, sequesters VEGF”, the “delay of LLC tumor growth” value in data set [2] (RhoJ-KO mice, VEGF-trap 25 mg/kg SC, vs Fc) is listed as 88%. Moreover, the “decrease of LLC tumor growth” value in data set [2] (VEGF-trap 25 mg/kg SC, vs Fc) is recorded as 47%. Also, in data set [7] (setting [9]), the “decrease of tumor vessel density, intratumoral region” value was about 50% and the “decrease of tumor vessel density, peritumoral region” value is given as about 45%. For the same compound, in data set [7] (setting [10]), the “reduction of tumor vascular density, intratumoral area” value was 68% and the “reduction of tumor vascular density, peritumoral area” value is listed as 66%. For the same compound, in data set [7] (setting [11]), the “decrease of tumor vascular density, intratumoral area” value is recorded as 49% and the “decrease of tumor vascular density, peritumoral area” value came out at 43%.

For the origin of these results see patent US20140370079A1, “METHOD FOR TARGETING VASCULAR RHOJ FOR INHIBITING TUMOR ANGIOGENESIS” (Korea Advanced Institute of Science and Technology (KAIST), priority 2013, published 2014).
